Test results from PubChem BioAssay (NCI).
Where “and” joins values, the source holds several entries; their conditions need not be identical. Equal values may be shown once.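 How tested: cells in 96-well plates exposed to compound for 48 hours at five concentrations. GI50: concentration for 50% inhibition of growth. At the TGI there is no net growth.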

Legend:
Experiment in all cases: DTP human tumour cell line panel, 48 h
NCI-H226 lung = tested on: NCI-H226 lung
IGROV1 ovarian = tested on: IGROV1 ovarian
U251 CNS = tested on: U251 CNS
A498 renal = tested on: A498 renal
OVCAR-4 ovarian = tested on: OVCAR-4 ovarian
LOX IMVI melanoma = tested on: LOX IMVI melanoma
UACC-257 melanoma = tested on: UACC-257 melanoma
UACC-62 melanoma = tested on: UACC-62 melanoma
DU-145 prostate = tested on: DU-145 prostate
HOP-92 NSCLC = tested on: HOP-92 NSCLC
SF-268 CNS = tested on: SF-268 CNS
EKVX NSCLC = tested on: EKVX NSCLC
UO-31 renal = tested on: UO-31 renal
NCI-H23 lung = tested on: NCI-H23 lung
SK-OV-3 ovarian = tested on: SK-OV-3 ovarian
OVCAR-8 ovarian = tested on: OVCAR-8 ovarian
NCI/ADR-RES ovarian = tested on: NCI/ADR-RES ovarian
HCC-2998 colon = tested on: HCC-2998 colon
ACHN renal = tested on: ACHN renal
BT-549 breast = tested on: BT-549 breast
OVCAR-3 ovarian = tested on: OVCAR-3 ovarian
SK-MEL-5 melanoma = tested on: SK-MEL-5 melanoma
M14 melanoma = tested on: M14 melanoma
OVCAR-5 ovarian = tested on: OVCAR-5 ovarian
HT29 colon = tested on: HT29 colon
NCI-H522 lung = tested on: NCI-H522 lung
SW-620 colon = tested on: SW-620 colon
A549 NSCLC = tested on: A549 NSCLC
SF-295 CNS = tested on: SF-295 CNS
K-562 leukemia = tested on: K-562 leukemia
HS 578T breast = tested on: HS 578T breast
SF-539 CNS = tested on: SF-539 CNS
RPMI-8226 leukemia = tested on: RPMI-8226 leukemia
SNB-19 CNS = tested on: SNB-19 CNS
786-0 renal = tested on: 786-0 renal
SR leukemia = tested on: SR leukemia
PC-3 prostate = tested on: PC-3 prostate
SK-MEL-28 melanoma = tested on: SK-MEL-28 melanoma
MDA-MB-435 = tested on: MDA-MB-435
HCT-116 colon = tested on: HCT-116 colon
CAKI-1 renal = tested on: CAKI-1 renal
SNB-75 CNS = tested on: SNB-75 CNS
MALME-3M melanoma = tested on: MALME-3M melanoma
RXF 393 renal = tested on: RXF 393 renal
HL-60(TB) leukemia = tested on: HL-60(TB) leukemia
MDA-MB-231 breast = tested on: MDA-MB-231 breast
HCT-15 colon = tested on: HCT-15 colon
CCRF-CEM leukemia = tested on: CCRF-CEM leukemia
T-47D breast = tested on: T-47D breast
SN12C renal = tested on: SN12C renal
SK-MEL-2 melanoma = tested on: SK-MEL-2 melanoma
MOLT-4 leukemia = tested on: MOLT-4 leukemia
NCI-H460 lung = tested on: NCI-H460 lung
HOP-62 NSCLC = tested on: HOP-62 NSCLC
MCF7 breast = tested on: MCF7 breast
KM12 colon = tested on: KM12 colon
TK-10 renal = tested on: TK-10 renal
COLO 205 colon = tested on: COLO 205 colon

Compound: COc1cc2c(Nc3ccc(Cl)c(Cl)c3F)ncnc2cc1OCC1C[C@@H]2CN(C)C[C@@H]2C1 (stereo not given in full)
- GI50 (NCI-H226 lung): 3.05 µM and > 4.5 µM and 2.17 µM
- TGI (NCI-H226 lung): 15.1 µM and > 10 µM and 14.7 µM
- GI50 (IGROV1 ovarian): 0.112 µM and 0.0284 µM and 0.0507 µM
- TGI (IGROV1 ovarian): 1.95 µM and 0.791 µM and 1.44 µM
- GI50 (U251 CNS): 1.52 µM and 1.8 µM and 2.3 µM
- TGI (U251 CNS): 3.41 µM and 4.43 µM and 6.6 µM
- GI50 (A498 renal): 0.186 µM and 0.433 µM and 0.278 µM
- TGI (A498 renal): 1.49 µM and 2.03 µM and 2.05 µM
- GI50 (OVCAR-4 ovarian): 1.58 µM and 1.69 µM and 1.75 µM
- TGI (OVCAR-4 ovarian): 13.4 µM and > 10 µM and 14 µM
- GI50 (LOX IMVI melanoma): 0.953 µM and 1.18 µM
- TGI (LOX IMVI melanoma): 2.31 µM and 2.49 µM and 2.46 µM
- GI50 (UACC-257 melanoma): 1.76 µM and 1.68 µM and 1.95 µM
- TGI (UACC-257 melanoma): 3.64 µM and 3.57 µM and 4.05 µM
- GI50 (UACC-62 melanoma): 1.91 µM and 1.54 µM and 1.88 µM
- TGI (UACC-62 melanoma): 4.15 µM and 3.8 µM and 4.41 µM
- GI50 (DU-145 prostate): 0.751 µM and 0.532 µM and 0.673 µM
- TGI (DU-145 prostate): 13.6 µM and > 10 µM and 13.5 µM
- GI50 (HOP-92 NSCLC): 0.247 µM and 0.195 µM and 1.5 µM
- TGI (HOP-92 NSCLC): 1.85 µM and 1.8 µM and 6.78 µM
- GI50 (SF-268 CNS): 1.25 µM and 0.951 µM and 1.29 µM
- TGI (SF-268 CNS): 4.31 µM and > 4.82 µM and 7.74 µM
- GI50 (EKVX NSCLC): 0.033 µM and 0.101 µM
- TGI (EKVX NSCLC): > 6.55 µM and 15.2 µM
- GI50 (UO-31 renal): 0.171 µM and 0.101 µM and 0.177 µM
- TGI (UO-31 renal): 1.93 µM and 1.61 µM and 1.87 µM
- GI50 (NCI-H23 lung): 1.98 µM and 2.1 µM
- TGI (NCI-H23 lung): 7.01 µM and > 6.38 µM and 9.22 µM
- GI50 (SK-OV-3 ovarian): 0.234 µM and 0.241 µM and 0.195 µM
- TGI (SK-OV-3 ovarian): 0.902 µM and 1.51 µM and 0.865 µM
- GI50 (OVCAR-8 ovarian): 2.06 µM and 2.09 µM and 2.43 µM
- TGI (OVCAR-8 ovarian): 13.8 µM and > 10 µM and 13.6 µM
- GI50 (NCI/ADR-RES ovarian): 1.73 µM and 1.57 µM and 1.22 µM
- TGI (NCI/ADR-RES ovarian): 9.93 µM and > 9.38 µM and 7.35 µM
- GI50 (HCC-2998 colon): 2.37 µM and 1.41 µM and 1.82 µM
- TGI (HCC-2998 colon): 7.1 µM and > 5.78 µM and 5.03 µM
- GI50 (ACHN renal): 0.0468 µM and 0.0512 µM and 0.0553 µM
- TGI (ACHN renal): 3.48 µM and > 7.36 µM and 5.74 µM
- GI50 (BT-549 breast): 4.68 µM and 3.76 µM and 2.39 µM
- TGI (BT-549 breast): 13.7 µM and > 10 µM and 7.66 µM
- GI50 (OVCAR-3 ovarian): 1.01 µM and 0.422 µM and 1.79 µM
- TGI (OVCAR-3 ovarian): 8.18 µM and > 9.27 µM and 14.7 µM
- GI50 (SK-MEL-5 melanoma): 1.61 µM and 1.55 µM and 1.57 µM
- TGI (SK-MEL-5 melanoma): 3.01 µM and 2.93 µM and 2.94 µM
- GI50 (M14 melanoma): 1.77 µM and 1.67 µM and 1.82 µM
- TGI (M14 melanoma): 3.5 µM and 3.53 µM and 3.77 µM
- GI50 (OVCAR-5 ovarian): 0.247 µM and 0.532 µM and 0.646 µM
- TGI (OVCAR-5 ovarian): 5.35 µM and > 10 µM and 13.6 µM
- GI50 (HT29 colon): 0.695 µM and 0.759 µM and 0.621 µM
- TGI (HT29 colon): 4.62 µM and 5.86 µM and 4.38 µM
- GI50 (NCI-H522 lung): 0.304 µM and 0.0752 µM and 0.64 µM
- TGI (NCI-H522 lung): 2.53 µM and 1.66 µM and 3.1 µM
- GI50 (SW-620 colon): 1.6 µM and 1.46 µM and 1.72 µM
- TGI (SW-620 colon): 3.56 µM and 4.06 µM and 5.06 µM
- GI50 (A549 NSCLC): 1.23 µM and 1.35 µM and 1.28 µM
- TGI (A549 NSCLC): 4.05 µM and > 5.68 µM and 7.93 µM
- GI50 (SF-295 CNS): 1.61 µM and 1.54 µM and 1.46 µM
- TGI (SF-295 CNS): 3.41 µM and 3.26 µM and 3.31 µM
- GI50 (K-562 leukemia): 0.24 µM and 0.114 µM and 0.17 µM
- TGI (K-562 leukemia): 2.69 µM and > 7.77 µM and 3.14 µM
- GI50 (HS 578T breast): 1.13 µM and 1.4 µM and 1.54 µM
- TGI (HS 578T breast): 4.67 µM and 5.45 µM and 5.83 µM
- GI50 (SF-539 CNS): 1.47 µM and 1.48 µM and 1.58 µM
- TGI (SF-539 CNS): 3 µM and 3.01 µM and 3.36 µM
- GI50 (RPMI-8226 leukemia): 1.98 µM and 1.49 µM and 1.93 µM
- TGI (RPMI-8226 leukemia): 4.95 µM and 4.29 µM and 5.97 µM
- GI50 (SNB-19 CNS): 2.17 µM and 2.39 µM and 2.04 µM
- TGI (SNB-19 CNS): 8.76 µM and > 6.91 µM and 7.07 µM
- GI50 (786-0 renal): 1.11 µM and 1.06 µM and 1.03 µM
- TGI (786-0 renal): 2.58 µM and 2.9 µM and 2.85 µM
- GI50 (SR leukemia): 2.06 µM and 2.09 µM and 1.92 µM
- TGI (SR leukemia): 5.49 µM and 5.21 µM and 5.39 µM
- GI50 (PC-3 prostate): 1.53 µM and 1.36 µM and 2.12 µM
- TGI (PC-3 prostate): 11.6 µM and > 9.56 µM and 8.99 µM
- GI50 (SK-MEL-28 melanoma): 1.6 µM and 1.57 µM and 1.83 µM
- TGI (SK-MEL-28 melanoma): 3.33 µM and 3.22 µM and 4.15 µM
- GI50 (MDA-MB-435): 1.57 µM and 1.78 µM and 1.85 µM
- TGI (MDA-MB-435): 3.05 µM and 3.9 µM and 4.29 µM
- GI50 (HCT-116 colon): 2.21 µM and 1.59 µM and 1.82 µM
- TGI (HCT-116 colon): 10.9 µM and > 8.58 µM and 9.06 µM
- GI50 (CAKI-1 renal): 0.219 µM and 0.511 µM and 0.206 µM
- TGI (CAKI-1 renal): 2.75 µM and 2.36 µM and 2.32 µM
- GI50 (SNB-75 CNS): 0.406 µM and 0.43 µM and 0.822 µM
- TGI (SNB-75 CNS): 2.03 µM and 5.86 µM
- GI50 (MALME-3M melanoma): 1.79 µM and 1.58 µM
- TGI (MALME-3M melanoma): 4.25 µM and 3.54 µM and 3.63 µM
- GI50 (RXF 393 renal): 0.808 µM and 0.69 µM and 0.846 µM
- TGI (RXF 393 renal): 2.36 µM and 2.41 µM and 2.51 µM
- GI50 (HL-60(TB) leukemia): 2.31 µM and 1.99 µM and 2.43 µM
- TGI (HL-60(TB) leukemia): 5.72 µM and 4.73 µM and 5.73 µM
- GI50 (MDA-MB-231 breast): 1.41 µM and 1.12 µM and 1.5 µM
- TGI (MDA-MB-231 breast): 4.3 µM and 3.02 µM and 4.88 µM
- GI50 (HCT-15 colon): 1.14 µM and 1.25 µM and 1.13 µM
- TGI (HCT-15 colon): 3.7 µM and 5.42 µM and 4.51 µM
- TGI (CCRF-CEM leukemia): 7.56 µM and 1.24 µM and 10.5 µM
- GI50 (T-47D breast): 0.465 µM and 0.363 µM and 0.33 µM
- TGI (T-47D breast): 6.56 µM and > 10 µM and 10.2 µM
- GI50 (SN12C renal): 0.703 µM and 0.548 µM and 1.05 µM
- TGI (SN12C renal): 12.6 µM and > 10 µM and 12.2 µM
- GI50 (SK-MEL-2 melanoma): 2.32 µM and 1.92 µM and 2.05 µM
- TGI (SK-MEL-2 melanoma): 4.83 µM and 4.01 µM and 4.47 µM
- GI50 (MOLT-4 leukemia): 2.18 µM and 1.86 µM and 2.23 µM
- TGI (MOLT-4 leukemia): 7.03 µM and 7.85 µM and 8.67 µM
- GI50 (NCI-H460 lung): 2.66 µM and 2.73 µM and 3.35 µM
- TGI (NCI-H460 lung): 9.16 µM and > 10 µM and 13.5 µM
- GI50 (HOP-62 NSCLC): 1.08 µM and 1 µM and 1.52 µM
- TGI (HOP-62 NSCLC): 4.17 µM and > 4.9 µM and 5.75 µM
- GI50 (MCF7 breast): 0.806 µM and 1.19 µM and 1.52 µM
- TGI (MCF7 breast): 6.37 µM and > 6.9 µM and 8.05 µM
- GI50 (KM12 colon): 2.94 µM and 3.5 µM and 3.85 µM
- TGI (KM12 colon): 9.03 µM and > 10 µM and 15.7 µM
- GI50 (TK-10 renal): 0.109 µM and 0.0302 µM and 0.0472 µM
- TGI (TK-10 renal): 1.76 µM and 1.41 µM and 1.45 µM
- GI50 (COLO 205 colon): 1.81 µM and 1.83 µM and 1.72 µM
- TGI (COLO 205 colon): 3.47 µM and 4.32 µM and 3.93 µM
